Results on three compounds are retold here after ChEMBL document CHEMBL1821551, “From fragment screening to in vivo efficacy: optimization of a series of 2-aminoquinolines as potent inhibitors of beta-site amyloid precursor protein cleaving enzyme 1 (BACE1)” (J Med Chem, 2011).

Each structure is given as a SMILES string.

For this data set, the system named is human MDR1 (P-gp). Nature of the data set: in vitro. The settings on record: pig, LLC-PK1.
For `Cc1ccccc1-c1ccc2nc(N)c(C[C@@H](C)C(=O)NCc3ccccc3)cc2c1`, the Papp turned out to be 6.5 ×10⁻⁶ cm/s. The compound `Cc1ccccc1-c1ccc2nc(N)c(CC(C)C(=O)NCc3cccnc3)cc2c1` (racemic) showed a Papp of 16 ×10⁻⁶ cm/s. With `Cc1ccccc1-c1ccc2nc(N)c(CC(C)C(=O)NCc3cncs3)cc2c1` (racemic), the Papp came to 12 ×10⁻⁶ cm/s. The Papp values of the last two compounds are within 1.5-fold of each other.

As a reminder, the Papp is the rate of passage across a membrane or cell layer, normalised by area and donor concentration. High values mean fast passage, low ones slow passage.
